Experimental data reported in the NIST ThermoML archive (doi:10.1016/j.jct.2010.08.019).

Test: xn = mol fraction of the nth substance listed
Details: for surface tension liquid-gas: Wilhelmy-plate method; for viscosity / mass density: 101 kPa, Liquid; for viscosity: Falling or rolling sphere viscometry; for mass density: Vibrating tube method

C1CCOCC1 [tetrahydropyran] + CC(C)CC(C)(C)C
Details | mass density, 293.15 K [kg/m3] | mass density, 303.15 K [kg/m3] | surface tension liquid-gas, 293.15 K [mN/m] | surface tension liquid-gas, 303.15 K [mN/m] | viscosity, 293.15 K [mPa·s] | viscosity, 303.15 K [mPa·s]
x1 = 0.0502 | 697.82 | 689.38 | 18.9 | 18 | 0.506 | 0.452
x1 = 0.1 | 703.85 | 695.35 | 19 | 18.2 | 0.514 | 0.455
x1 = 0.1499 | 710.17 | 701.6 | 19.2 | 18.3 | 0.524 | 0.463
x1 = 0.2 | 716.8 | 708.16 | 19.4 | 18.6 | 0.533 | 0.47
x1 = 0.25 | 723.72 | 715.01 | 19.6 | 18.8 | 0.544 | 0.478
x1 = 0.2999 | – | 722.17 | – | 19 | – | 0.488
x1 = 0.3 | 730.98 | – | 19.8 | – | 0.553 | –
x1 = 0.3498 | – | 729.67 | – | 19.2 | – | 0.497
x1 = 0.35 | 738.59 | – | 20.1 | – | 0.564 | –
x1 = 0.3998 | – | 737.56 | – | 19.5 | – | 0.509
x1 = 0.4 | 746.55 | – | 20.3 | – | 0.577 | –
x1 = 0.4498 | 754.88 | 745.84 | 20.6 | 19.7 | 0.592 | 0.52
x1 = 0.5001 | 763.72 | 754.6 | 20.9 | 20 | 0.606 | 0.533
x1 = 0.5501 | 772.97 | 763.76 | 21.2 | 20.3 | 0.623 | 0.546
x1 = 0.5999 | 782.67 | 773.38 | 21.6 | 20.6 | 0.638 | 0.56
x1 = 0.6501 | 793 | 783.61 | 22 | 21 | 0.655 | 0.574
x1 = 0.6999 | 803.82 | 794.32 | 22.5 | 21.5 | 0.675 | 0.59
x1 = 0.75 | 815.32 | 805.72 | 23.1 | 22.1 | 0.696 | 0.607
x1 = 0.8 | 827.51 | 817.78 | 23.6 | 22.6 | 0.718 | 0.625
x1 = 0.8501 | 840.43 | 830.59 | 24.3 | 23.3 | 0.743 | 0.646
x1 = 0.9 | 854.12 | 844.14 | 25.2 | 24.2 | 0.771 | 0.67
x1 = 0.95 | 868.68 | 858.58 | 26.3 | 25.2 | 0.803 | 0.699
x1 = 1 | 884.27 | 874.07 | 27.5 | 26.2 | 0.86 | 0.749
